# Laboratory results as given in PMC5290327, “SC83288 is a clinical development candidate for the treatment of severe malaria” (Nature Communications, 2017).
# Key:
# Assay in all cases: KINOMEscan
# Format in all cases: binding
# Details in all cases: read-out: Remaining enzyme activity
# AKT3 = biological target: T1, AKT3 (Homo sapiens, UniProt Q9Y243)
# T1 construct: purchased Ambit (DiscoverX) KINOMEscan; Cerep
# Outline: (§1)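 Read-out: qPCR quantitation of DNA-tagged kinase eluted from affinity beads after competition with SC81458 (10 μM final). Kinases were expressed either as T7 phage fusions in E. coli or in HEK-293 cells.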
# DYRK1b = biological target: T2, DYRK1b (Homo sapiens, UniProt Q9Y463)
# T2 construct: purchased Ambit (DiscoverX) KINOMEscan; Cerep
# Outline: as §1
# HUNK = biological target: T3, HUNK (Homo sapiens, UniProt P57058)
# T3 construct: purchased Ambit (DiscoverX) KINOMEscan; Cerep
# Outline: as §1
# ERBB4 = biological target: T4, ERBB4 (Homo sapiens, UniProt Q15303)
# T4 construct: purchased Ambit (DiscoverX) KINOMEscan; Cerep
# Outline: as §1
# PLK3 = biological target: T5, PLK3 (Homo sapiens, UniProt Q9H4B4)
# T5 construct: purchased Ambit (DiscoverX) KINOMEscan; Cerep
# T5 sequence (Q9H4B4 whole entry): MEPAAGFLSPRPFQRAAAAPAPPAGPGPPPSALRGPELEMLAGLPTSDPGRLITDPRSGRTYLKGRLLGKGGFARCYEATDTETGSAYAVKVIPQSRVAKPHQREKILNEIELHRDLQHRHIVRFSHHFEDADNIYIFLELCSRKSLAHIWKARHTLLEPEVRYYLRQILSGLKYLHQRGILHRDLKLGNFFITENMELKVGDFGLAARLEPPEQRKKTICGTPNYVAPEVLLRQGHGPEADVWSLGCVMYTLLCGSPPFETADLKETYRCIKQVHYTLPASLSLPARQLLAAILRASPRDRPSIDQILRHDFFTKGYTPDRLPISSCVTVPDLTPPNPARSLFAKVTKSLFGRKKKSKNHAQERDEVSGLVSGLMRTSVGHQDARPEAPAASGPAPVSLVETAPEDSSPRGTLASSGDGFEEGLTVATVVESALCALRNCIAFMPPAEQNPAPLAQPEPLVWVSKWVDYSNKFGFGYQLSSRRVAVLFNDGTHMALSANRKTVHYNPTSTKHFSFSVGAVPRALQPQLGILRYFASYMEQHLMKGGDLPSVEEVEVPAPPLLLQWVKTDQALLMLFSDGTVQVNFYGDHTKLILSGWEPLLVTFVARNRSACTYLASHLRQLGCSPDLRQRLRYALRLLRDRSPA
# Outline: as §1
# EPHA2 = biological target: T6, EPHA2 (Homo sapiens, UniProt P29317)
# T6 construct: purchased Ambit (DiscoverX) KINOMEscan; Cerep
# T6 sequence (P29317 24-976): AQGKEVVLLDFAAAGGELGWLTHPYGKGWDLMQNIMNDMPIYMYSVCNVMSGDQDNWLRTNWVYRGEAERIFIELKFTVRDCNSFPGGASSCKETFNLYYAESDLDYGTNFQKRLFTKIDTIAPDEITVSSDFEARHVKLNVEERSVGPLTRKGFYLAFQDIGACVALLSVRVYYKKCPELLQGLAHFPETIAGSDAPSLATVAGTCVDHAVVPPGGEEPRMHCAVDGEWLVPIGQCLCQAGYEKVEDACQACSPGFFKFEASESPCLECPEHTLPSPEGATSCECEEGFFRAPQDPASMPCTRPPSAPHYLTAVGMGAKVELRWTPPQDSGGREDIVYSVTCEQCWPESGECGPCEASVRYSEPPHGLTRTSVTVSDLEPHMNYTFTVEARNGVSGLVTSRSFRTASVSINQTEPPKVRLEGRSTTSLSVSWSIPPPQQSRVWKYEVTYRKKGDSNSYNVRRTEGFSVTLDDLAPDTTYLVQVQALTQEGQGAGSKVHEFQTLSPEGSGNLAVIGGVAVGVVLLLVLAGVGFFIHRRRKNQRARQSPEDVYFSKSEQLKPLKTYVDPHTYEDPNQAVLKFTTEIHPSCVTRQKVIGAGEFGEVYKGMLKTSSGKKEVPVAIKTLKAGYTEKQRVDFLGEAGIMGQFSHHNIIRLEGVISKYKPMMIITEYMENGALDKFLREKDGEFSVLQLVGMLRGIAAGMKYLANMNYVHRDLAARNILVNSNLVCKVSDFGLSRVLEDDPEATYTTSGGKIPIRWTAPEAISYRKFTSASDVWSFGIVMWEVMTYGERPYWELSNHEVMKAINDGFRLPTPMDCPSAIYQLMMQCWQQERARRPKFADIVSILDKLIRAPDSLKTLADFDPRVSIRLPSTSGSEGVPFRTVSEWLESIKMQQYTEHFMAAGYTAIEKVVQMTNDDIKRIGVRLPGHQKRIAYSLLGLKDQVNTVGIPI
# Outline: as §1
# CAMK1 = biological target: T7, CAMK1 (Homo sapiens, UniProt Q14012)
# T7 construct: purchased Ambit (DiscoverX) KINOMEscan; Cerep
# T7 sequence (Q14012 whole entry): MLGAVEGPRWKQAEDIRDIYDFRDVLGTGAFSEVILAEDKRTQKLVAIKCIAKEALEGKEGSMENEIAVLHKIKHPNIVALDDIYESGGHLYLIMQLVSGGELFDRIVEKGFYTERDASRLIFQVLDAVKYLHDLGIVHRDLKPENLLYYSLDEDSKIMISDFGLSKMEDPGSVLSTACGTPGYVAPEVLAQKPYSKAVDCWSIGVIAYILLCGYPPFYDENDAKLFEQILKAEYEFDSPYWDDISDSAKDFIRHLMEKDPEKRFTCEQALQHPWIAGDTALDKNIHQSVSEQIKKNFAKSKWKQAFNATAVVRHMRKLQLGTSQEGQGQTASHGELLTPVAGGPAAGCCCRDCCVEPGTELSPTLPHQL
# Outline: as §1
# FLT1 = biological target: T8, FLT1 (Homo sapiens, UniProt P17948)
# T8 construct: purchased Ambit (DiscoverX) KINOMEscan; Cerep
# Outline: as §1
# PKN1 = biological target: T9, PKN1 (Homo sapiens, UniProt Q16512)
# T9 construct: purchased Ambit (DiscoverX) KINOMEscan; Cerep
# Outline: as §1
# ABL1(F317I) = biological target: T10, ABL1(F317I) (Homo sapiens, UniProt P00519, F317I)
# T10 construct: purchased Ambit (DiscoverX) KINOMEscan; Cerep
# Outline: as §1
# DLK = biological target: T11, DLK (Homo sapiens, UniProt Q12852)
# T11 construct: purchased Ambit (DiscoverX) KINOMEscan; Cerep
# Outline: as §1
# MYLK2 = biological target: T12, MYLK2 (Homo sapiens, UniProt Q9H1R3)
# T12 construct: purchased Ambit (DiscoverX) KINOMEscan; Cerep
# Outline: as §1
# ERK4 = biological target: T13, ERK4 (Homo sapiens, UniProt P31152)
# T13 construct: purchased Ambit (DiscoverX) KINOMEscan; Cerep
# Outline: as §1
# ZAK = biological target: T14, ZAK (Homo sapiens, UniProt Q9NYL2)
# T14 construct: purchased Ambit (DiscoverX) KINOMEscan; Cerep
# Outline: as §1
# PIP5K1a = biological target: T15, PIP5K1a (Homo sapiens, UniProt Q99755)
# T15 construct: purchased Ambit (DiscoverX) KINOMEscan; Cerep
# Outline: as §1
# BMX = biological target: T16, BMX (Homo sapiens, UniProt P51813)
# T16 construct: purchased Ambit (DiscoverX) KINOMEscan; Cerep
# Outline: as §1
# BTK = biological target: T17, BTK (Homo sapiens, UniProt Q06187)
# T17 construct: purchased Ambit (DiscoverX) KINOMEscan; Cerep
# Outline: as §1
# EGFR(L747-T751del, Sins) = biological target: T18, EGFR(L747-T751del, Sins) (Homo sapiens, UniProt P00533, DEL747-750/T751S)
# T18 construct: purchased Ambit (DiscoverX) KINOMEscan; Cerep
# Outline: as §1
# DCAMKL1 = biological target: T19, DCAMKL1 (Homo sapiens, UniProt O15075)
# T19 construct: purchased Ambit (DiscoverX) KINOMEscan; Cerep
# Outline: as §1
# INSRR = biological target: T20, INSRR (Homo sapiens, UniProt P14616)
# T20 construct: purchased Ambit (DiscoverX) KINOMEscan; Cerep
# Outline: as §1
# MARK1 = biological target: T21, MARK1 (Homo sapiens, UniProt Q9P0L2)
# T21 construct: purchased Ambit (DiscoverX) KINOMEscan; Cerep
# Outline: as §1
# PRKD1 = biological target: T22, PRKD1 (Homo sapiens, UniProt Q15139)
# T22 construct: purchased Ambit (DiscoverX) KINOMEscan; Cerep
# Outline: as §1
# AAK1 = biological target: T23, AAK1 (Homo sapiens, UniProt Q2M2I8)
# T23 construct: purchased Ambit (DiscoverX) KINOMEscan; Cerep
# Outline: as §1
# ABL1(E255K) = biological target: T24, ABL1(E255K) (Homo sapiens, UniProt P00519, E255K)
# T24 construct: purchased Ambit (DiscoverX) KINOMEscan; Cerep
# Outline: as §1
# FGFR3 = biological target: T25, FGFR3 (Homo sapiens, UniProt P22607)
# T25 construct: purchased Ambit (DiscoverX) KINOMEscan; Cerep
# T25 sequence (P22607 23-806): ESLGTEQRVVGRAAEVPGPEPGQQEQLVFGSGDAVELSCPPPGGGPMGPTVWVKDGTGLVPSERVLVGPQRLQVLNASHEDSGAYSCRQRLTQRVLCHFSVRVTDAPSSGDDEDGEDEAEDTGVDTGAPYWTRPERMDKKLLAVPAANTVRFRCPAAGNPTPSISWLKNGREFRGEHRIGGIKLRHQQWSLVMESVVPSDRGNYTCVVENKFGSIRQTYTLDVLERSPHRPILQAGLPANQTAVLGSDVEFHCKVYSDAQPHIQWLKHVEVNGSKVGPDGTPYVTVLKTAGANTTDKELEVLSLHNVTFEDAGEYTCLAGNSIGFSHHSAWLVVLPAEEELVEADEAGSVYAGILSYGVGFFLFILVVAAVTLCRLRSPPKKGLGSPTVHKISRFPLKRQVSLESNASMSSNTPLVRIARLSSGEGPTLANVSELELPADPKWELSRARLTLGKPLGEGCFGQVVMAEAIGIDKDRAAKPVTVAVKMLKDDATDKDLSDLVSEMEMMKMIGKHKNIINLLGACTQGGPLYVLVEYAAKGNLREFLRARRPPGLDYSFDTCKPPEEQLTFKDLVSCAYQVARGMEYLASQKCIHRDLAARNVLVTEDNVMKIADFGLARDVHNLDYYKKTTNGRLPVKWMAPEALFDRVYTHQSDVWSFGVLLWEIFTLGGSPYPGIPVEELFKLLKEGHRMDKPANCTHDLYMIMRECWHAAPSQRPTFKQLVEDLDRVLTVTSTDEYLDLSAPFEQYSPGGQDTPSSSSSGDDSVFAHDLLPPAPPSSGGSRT
# Outline: as §1
# [1] = biological target: T26, RPS6KA3(Kin.Dom.1-N-term) (Homo sapiens, UniProt P51812)
# T26 construct: RPS6KA3(Kin.Dom.1-N-term); purchased Ambit (DiscoverX) KINOMEscan; Cerep
# Outline: as §1
# TESK1 = biological target: T27, TESK1 (Homo sapiens, UniProt Q15569)
# T27 construct: purchased Ambit (DiscoverX) KINOMEscan; Cerep
# Outline: as §1
# PCTK1 = biological target: T28, PCTK1 (Homo sapiens, UniProt Q00536)
# T28 construct: purchased Ambit (DiscoverX) KINOMEscan; Cerep
# T28 sequence (Q00536 whole entry): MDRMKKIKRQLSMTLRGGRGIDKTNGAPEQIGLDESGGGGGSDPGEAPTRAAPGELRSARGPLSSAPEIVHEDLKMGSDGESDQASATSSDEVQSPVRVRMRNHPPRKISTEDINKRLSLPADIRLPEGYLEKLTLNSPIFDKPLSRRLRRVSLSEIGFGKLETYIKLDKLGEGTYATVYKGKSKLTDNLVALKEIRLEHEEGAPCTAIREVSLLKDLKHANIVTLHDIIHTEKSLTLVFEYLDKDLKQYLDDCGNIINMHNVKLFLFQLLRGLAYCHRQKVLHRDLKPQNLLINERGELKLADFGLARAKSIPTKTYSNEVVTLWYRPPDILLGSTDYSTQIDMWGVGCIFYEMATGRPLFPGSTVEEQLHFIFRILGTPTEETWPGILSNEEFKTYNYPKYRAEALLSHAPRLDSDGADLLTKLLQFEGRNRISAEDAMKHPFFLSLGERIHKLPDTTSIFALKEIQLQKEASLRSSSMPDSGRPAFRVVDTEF
# Outline: as §1
# ABL1(F317L) = biological target: T29, ABL1(F317L) (Homo sapiens, UniProt P00519, F317L)
# T29 construct: purchased Ambit (DiscoverX) KINOMEscan; Cerep
# Outline: as §1
# ADCK4 = biological target: T30, ADCK4 (Homo sapiens, UniProt Q96D53)
# T30 construct: purchased Ambit (DiscoverX) KINOMEscan; Cerep
# Outline: as §1
# RRET(V804L) = biological target: T31, RRET(V804L) (Homo sapiens, UniProt P07949, V804L)
# T31 construct: purchased Ambit (DiscoverX) KINOMEscan; Cerep
# T31 sequence (P07949 29-1114 V804L): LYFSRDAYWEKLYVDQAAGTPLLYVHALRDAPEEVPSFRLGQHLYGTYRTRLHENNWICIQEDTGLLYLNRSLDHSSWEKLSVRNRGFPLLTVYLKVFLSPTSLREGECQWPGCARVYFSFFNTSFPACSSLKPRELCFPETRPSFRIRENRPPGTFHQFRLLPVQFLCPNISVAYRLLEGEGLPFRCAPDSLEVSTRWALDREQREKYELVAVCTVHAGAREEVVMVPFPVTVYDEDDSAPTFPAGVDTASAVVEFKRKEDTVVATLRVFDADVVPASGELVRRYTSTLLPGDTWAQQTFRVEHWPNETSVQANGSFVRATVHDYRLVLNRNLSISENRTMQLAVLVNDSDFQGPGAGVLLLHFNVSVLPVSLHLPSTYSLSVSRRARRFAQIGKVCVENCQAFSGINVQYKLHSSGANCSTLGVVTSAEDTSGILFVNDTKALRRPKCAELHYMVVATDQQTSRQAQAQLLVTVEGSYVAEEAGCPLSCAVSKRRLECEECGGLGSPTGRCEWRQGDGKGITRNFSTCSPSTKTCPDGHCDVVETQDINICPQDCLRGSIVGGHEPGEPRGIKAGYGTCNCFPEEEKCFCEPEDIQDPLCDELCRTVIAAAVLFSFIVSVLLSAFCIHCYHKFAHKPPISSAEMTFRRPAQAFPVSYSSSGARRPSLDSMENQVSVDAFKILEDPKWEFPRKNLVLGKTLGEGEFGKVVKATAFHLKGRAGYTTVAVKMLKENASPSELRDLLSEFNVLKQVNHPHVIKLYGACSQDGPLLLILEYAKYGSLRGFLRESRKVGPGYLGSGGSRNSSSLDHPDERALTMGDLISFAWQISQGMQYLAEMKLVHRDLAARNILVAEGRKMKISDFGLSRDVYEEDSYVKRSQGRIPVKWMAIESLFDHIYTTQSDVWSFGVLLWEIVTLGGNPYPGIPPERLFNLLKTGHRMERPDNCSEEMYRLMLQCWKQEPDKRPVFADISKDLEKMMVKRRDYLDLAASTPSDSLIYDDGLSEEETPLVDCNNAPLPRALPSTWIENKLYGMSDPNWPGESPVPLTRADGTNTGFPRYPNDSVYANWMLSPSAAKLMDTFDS
# Outline: as §1
# TIE1 = biological target: T32, TIE1 (Homo sapiens, UniProt P35590)
# T32 construct: purchased Ambit (DiscoverX) KINOMEscan; Cerep
# Outline: as §1
# PRP4 = biological target: T33, PRP4 (Homo sapiens, UniProt Q13523)
# T33 construct: purchased Ambit (DiscoverX) KINOMEscan; Cerep
# Outline: as §1
# T1 sequence (Q9Y243 whole entry): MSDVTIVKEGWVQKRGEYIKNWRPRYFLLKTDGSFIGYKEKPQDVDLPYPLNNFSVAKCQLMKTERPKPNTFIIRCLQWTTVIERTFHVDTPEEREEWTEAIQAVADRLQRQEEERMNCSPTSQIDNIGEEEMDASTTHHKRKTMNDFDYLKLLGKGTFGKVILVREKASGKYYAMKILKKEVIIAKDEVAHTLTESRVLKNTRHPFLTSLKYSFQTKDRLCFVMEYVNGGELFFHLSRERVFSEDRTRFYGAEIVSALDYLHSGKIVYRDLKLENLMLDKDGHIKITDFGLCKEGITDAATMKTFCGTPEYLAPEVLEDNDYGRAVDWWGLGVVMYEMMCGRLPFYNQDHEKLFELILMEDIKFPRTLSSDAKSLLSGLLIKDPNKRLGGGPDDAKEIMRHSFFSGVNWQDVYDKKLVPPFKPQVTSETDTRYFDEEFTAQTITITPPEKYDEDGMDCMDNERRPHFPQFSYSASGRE
smiles,measurement,setting,value
"CCCCN1CCN(C(=N)c2cccc(NC(=O)Nc3ccc(S(=O)(=O)NCc4ccc(S(N)(=O)=O)cc4)cc3)c2)CC1 [SC81458, 4-(3-(3-((4-butylpiperazin-1-yl)(imino)methyl)phenyl)ureido)-N-(4-sulfamoylbenzyl) benzenesulfonamide]",remaining binding at 10 µM,AKT3,66%
same,remaining binding at 10 µM,DYRK1b,87%
same,remaining binding at 10 µM,HUNK,100%
same,remaining binding at 10 µM,ERBB4,100%
same,remaining binding at 10 µM,PLK3,75%
same,remaining binding at 10 µM,EPHA2,99%
same,remaining binding at 10 µM,CAMK1,82%
same,remaining binding at 10 µM,FLT1,91%
same,remaining binding at 10 µM,PKN1,100%
same,remaining binding at 10 µM,ABL1(F317I),100%
same,remaining binding at 10 µM,DLK,100%
same,remaining binding at 10 µM,MYLK2,100%
same,remaining binding at 10 µM,ERK4,100%
same,remaining binding at 10 µM,ZAK,100%
same,remaining binding at 10 µM,PIP5K1a,100%
same,remaining binding at 10 µM,BMX,100%
same,remaining binding at 10 µM,BTK,100%
same,remaining binding at 10 µM,"EGFR(L747-T751del, Sins)",69%
same,remaining binding at 10 µM,DCAMKL1,100%
same,remaining binding at 10 µM,INSRR,95%
same,remaining binding at 10 µM,MARK1,100%
same,remaining binding at 10 µM,PRKD1,65%
same,remaining binding at 10 µM,AAK1,100%
same,remaining binding at 10 µM,ABL1(E255K),100%
same,remaining binding at 10 µM,FGFR3,100%
same,remaining binding at 10 µM,[1],100%
same,remaining binding at 10 µM,TESK1,100%
same,remaining binding at 10 µM,PCTK1,92%
same,remaining binding at 10 µM,ABL1(F317L),100%
same,remaining binding at 10 µM,ADCK4,100%
same,remaining binding at 10 µM,RRET(V804L),100%
same,remaining binding at 10 µM,TIE1,99%
same,remaining binding at 10 µM,PRP4,100%
